Test [1] is filed under the species Homo sapiens. The test can be described thus: Compound was tested for inhibition of ADP induced platelet aggregation by using human platelet rich plasma(PRP) assay. It counts as functional.
The species entered for test [2] is Homo sapiens. The test can be described thus: Compound was tested for inhibition of ADP induced platelet aggregation by using human platelet rich plasma (PRP) assay. It counts as functional.

This is an account of results in ChEMBL document CHEMBL1130705, “Synthesis and antiplatelet effects of an isoxazole series of glycoprotein IIb/IIIa antagonists” (Bioorg Med Chem Lett, 1998).

The term IC50 denotes the concentration that inhibits the measured activity by half. The molecule `CCCCOC(=O)N[C@@H](CNC(=O)c1cccc(COc2ccc(C(=N)N)cc2)c1)C(=O)OC` yielded an IC50 in the test filed under Homo sapiens [1] of 32 nM.

Turning to `CCCCOC(=O)N[C@@H](CNC(=O)c1cc(OCc2ccc(C(=N)N)cc2)no1)C(=O)OC`, in the test listed under Homo sapiens [1], half-maximal inhibition (IC50) required 50 nM. The same measure, in the same setting: then `CCCCOC(=O)N[C@@H](CNC(=O)c1cc(OCc2ccc(C(=N)N)cc2)no1)C(=O)O`, with 60 nM. As for `CCCCOC(=O)N[C@@H](CNC(=O)c1cc(OCC2CCN(C(=N)N)CC2)no1)C(=O)OC`, in the test listed under Homo sapiens [2], inhibition was half-maximal at 200 nM (IC50).
